Literature values as cited in patent US20210353710A1, “GLP-1R AGONIST AND METHODS OF TREATMENT” (The Johns Hopkins University, priority 2020, published 2021).

Conditions: given twice a day for one month

Exendin-4
effect on blood glucose in humans: hypoglycemic effect
